Measurements from patent US9850273B2, “Combination of estrogens plus antiprogestins with significant partial agonistic effect as an effective treatment of menopausal symptoms and for prevention of the occurrence of breast cancer” (Evestra, Inc., priority 2014, dated 2017).
Read-outs that look alike come from different tables or passages of the source.

Key:
[1] = tested on: estradiol-primed immature female rabbits; test: McPhail and anti-McPhail tests in rabbits; assay type: in vivo, rabbit
From the text: The McPhail test in the immature female rabbit is a well-established model to test progestatational and antiprogestational activity [McPhail 1934).

progesterone receptor [2] = target: T1, progesterone receptor (Homo sapiens, UniProt P06401); test: PR transactivation assay, agonistic activity (PR luciferase reporter); assay type: cell-based; settings: T47D cells
T1 sequence (P06401 679-933 limits assumed): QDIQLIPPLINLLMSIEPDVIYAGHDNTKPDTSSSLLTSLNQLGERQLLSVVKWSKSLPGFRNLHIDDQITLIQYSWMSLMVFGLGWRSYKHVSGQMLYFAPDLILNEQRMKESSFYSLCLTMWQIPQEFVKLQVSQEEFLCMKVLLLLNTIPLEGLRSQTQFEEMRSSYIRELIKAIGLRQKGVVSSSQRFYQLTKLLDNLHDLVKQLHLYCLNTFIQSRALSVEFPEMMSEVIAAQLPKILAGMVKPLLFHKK
Experimental: (§1) Transactivation Assay for Progesterone Agonist and Antagonistic Activity (See Table 1).
(§2) Experimental: PR transactivation studies was carried out in human breast cancer (T47D) cells, grown in RPMI medium without phenol red and 5% charcoal stripped fetal bovine serum, transiently transfected with PR luciferase reporter (CCS-6043L signal reporter assay kit, Qiagen). The cells were stimulated R5020 as PR agonist and treated in the presence or absence of the tested compounds for 24 hours. The effect was calculated using dual luciferase assay kit (Promega, WI)) based on RU486 as full antagonist and R5020 as agonist for progesterone receptor.

[3] = tested on: ovariectomized C57BL/6 mice; test: Mammary gland whole mount analysis in ovariectomized mice; assay type: in vivo, mouse; settings: 0.1 and 1.0 mg/kg with E2, 4 weeks
Experimental: (§3) In order to determine the in vivo estrogenic action of EC313 in uterine weight and benign breast development, we have used standard uterine weight bioassay and mammary gland whole mount analysis in ovariectomized mice. […] Five different measurements were obtained from each whole-mount image. Ductal length (millimeters) was measured by drawing and measuring a straight line caliper from the most distal point of the ductal network to the nipple and end buds were identified as large bulbous profiles located at the termini of ducts. […] The reduced estrogenic effect by the treatment of EC313 was further confirmed by the gene expression studies.
(§4) Whole mounts of mammary glands of overictomized C57BL/6 mice treated with E2, EC313 0.1 and 1.0 mg/kg. Magnification—upper panel—10×, lower panel—20×. B, Uterine weight of mice treated for 4 weeks with E2, EC313 0.1 and 1.0 mg/kg. Data represented are average uterine weight in milligrams±SD (*P<0.001 vs E2-control). C-D, Total duct length and terminal end bud counts in the mammary gland whole mounts after 4 weeks of the treatment with test compounds (*P<0.001 vs E2-control).

[4] = tested on: ovariectomized C57BL/6 mice; test: Uterine weight bioassay in ovariectomized mice; assay type: in vivo, mouse; settings: combined with E2, 4 weeks
Experimental: as §3, §4

[5] = tested on: ovariectomized C57BL/6 mice; test: Gene expression in mammary glands of ovariectomized mice; assay type: in vivo, mouse
Experimental: as §3
Gene expression in mammary glands of ovariectomized C57BL/6 mice treated with E2, EC313 0.1 and 1.0 mg/kg. Columns are average of relative amount (ΔΔCt) of tested mRNA±SD (n=6) (**P<0.01 vs E2-control, *P<0.001 vs E2-control).

guinea pig [6] = settings: in vivo; cited from earlier work
guinea pig [7] = test: Guinea pig model (ovulation inhibition, uterine weight, vagina, ovary, classification); assay type: in vivo
progesterone receptor [8] = target: T2, progesterone receptor (Homo sapiens, UniProt P06401); test: PR transactivation assay, antagonistic activity (PR luciferase reporter); assay type: cell-based
T2 sequence (P06401 165-933 limits assumed): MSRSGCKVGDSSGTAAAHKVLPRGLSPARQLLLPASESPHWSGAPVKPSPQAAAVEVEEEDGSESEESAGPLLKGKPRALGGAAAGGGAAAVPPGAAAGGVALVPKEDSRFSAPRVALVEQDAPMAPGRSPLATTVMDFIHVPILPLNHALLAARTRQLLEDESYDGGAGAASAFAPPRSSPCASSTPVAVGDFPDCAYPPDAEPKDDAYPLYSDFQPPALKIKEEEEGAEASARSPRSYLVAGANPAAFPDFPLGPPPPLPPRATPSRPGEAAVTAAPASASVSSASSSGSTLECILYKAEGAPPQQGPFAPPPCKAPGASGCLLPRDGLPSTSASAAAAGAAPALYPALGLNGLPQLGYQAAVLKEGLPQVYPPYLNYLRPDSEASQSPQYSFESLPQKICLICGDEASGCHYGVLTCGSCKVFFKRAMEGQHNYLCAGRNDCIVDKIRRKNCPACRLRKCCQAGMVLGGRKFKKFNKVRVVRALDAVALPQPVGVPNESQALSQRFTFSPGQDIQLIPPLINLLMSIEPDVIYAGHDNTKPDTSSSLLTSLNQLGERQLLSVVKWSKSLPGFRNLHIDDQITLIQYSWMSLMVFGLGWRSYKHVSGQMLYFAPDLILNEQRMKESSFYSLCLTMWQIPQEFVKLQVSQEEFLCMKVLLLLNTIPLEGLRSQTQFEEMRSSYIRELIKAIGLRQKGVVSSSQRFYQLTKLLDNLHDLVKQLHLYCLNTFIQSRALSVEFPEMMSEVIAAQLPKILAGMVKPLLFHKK
Experimental: as §1
as §2, with “hours.” for “hours. The effect was calculated using dual luciferase assay kit (Promega, WI)) based on RU486 as full antagonist and R5020 as agonist for progesterone receptor.”

Agonist rel to R5020 (%) (progesterone receptor [2]): 7.8%
EC50 (progesterone receptor [2]; stimulant R5020, read-out: EC50): 4.75 nM
Ratio of IC50's (progesterone receptor [8]; PR agonism / PR antagonism): 9.4
Antagonist rel to RU486 (%) (progesterone receptor [8]; T47D cells, stimulant R5020): 240%
IC50 (progesterone receptor [8]; T47D cells, stimulant R5020, read-out: IC50 Average of 2 expts): 0.5 nM
IC50 (progesterone receptor [8]; Table 2 summary, read-out: PR antagonism (IC50)): 0.5 nM
SMILES: C[C@]12C[C@H](c3ccc(-c4ccoc4)cc3)C3=C4CCC(=O)C=C4CCC3C1CCC21OCCC1=C(F)F (some centres unmarked) [EC-313]
progestational activity (McPhail test) ([1]; estradiol-primed immature female rabbit): active both as a progestin agonist and antagonist
antiprogestational activity (anti-McPhail test) ([1]; immature female rabbit): active both as a progestin agonist and antagonist
ductal branching and terminal end buds in whole mount analysis [3]: dose dependently reduced
E2 stimulated uterine weight ([4]; 0.1 mg/kg): reduced by two fold
E2 stimulated uterine weight ([4]; 1.0 mg/kg): three fold
PR regulated genes amphiregulin (AREG) and RANKL in mammary glands ([5]; higher dose): significantly inhibited
PR regulated genes amphiregulin (AREG) and RANKL in mammary glands ([5]; lower doses): upregulated in a moderate fashion
E2 regulated genes cyclin D1 and PS2 in mammary glands ([5]; treatment combined with E2): downregulated
Classification (previous findings, Nickisch et al, 2013) (guinea pig [6]): mesoprogestin
ER-/PR balance vagina.: dose at which the dominance is seen (guinea pig [7]; guinea pig): ≧0.1 mg
Classification (guinea pig [7]; guinea pig model): mesoprogestin
Uterine Weight at max. dose (10.mg/day s.c.) (guinea pig [7]; guinea pig, 10 mg/day s.c.): 1.13
ER-/PR balance vagina. (guinea pig [7]; guinea pig, at max. dose (10.mg/day s.c.)): PR-domin.
Ovary (CL) (guinea pig [7]; guinea pig, at max. dose (10.mg/day s.c.), CL = corpora lutea): degenerated
